Results taken from ChEMBL document CHEMBL1201862, “PubChem BioAssay data set” (2004).
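Briefly, cells in 96-well plates were exposed to five compound concentrations for 48 h, and endpoints were estimated by linear interpolation. The concentration for 50% growth inhibition is given as GI50.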 Activity calls are given as the source filed them. Rule as the data show it: active = GI50 up to about 1.1 µM and inactive = higher.

Experiments:
Assay in all cases: NCI-60 cell line screen, 48 h
UACC-62 = system: UACC-62
DMS-114 = system: DMS-114
HOP-18 = system: HOP-18
DMS-273 = system: DMS-273
Malme-3M = system: Malme-3M
SN12C = system: SN12C
K562 = system: K562
HL-60 = system: HL-60
CAKI-1 = system: CAKI-1
SK-OV-3 = system: SK-OV-3
786-0 = system: 786-0
NCI-H522 = system: NCI-H522
DLD-1 = system: DLD-1
CCRF-CEM = system: CCRF-CEM
RXF 631 = system: RXF 631
OVCAR-8 = system: OVCAR-8
XF498 = system: XF498
A549 = system: A549
SK-MEL-2 = system: SK-MEL-2
HOP-62 = system: HOP-62
SNB-19 = system: SNB-19
HOP-92 = system: HOP-92
TK-10 = system: TK-10
SK-MEL-5 = system: SK-MEL-5
A498 = system: A498
UACC-257 = system: UACC-257
RXF 393 = system: RXF 393
EKVX = system: EKVX
SF-268 = system: SF-268
ACHN = system: ACHN
MOLT-4 = system: MOLT-4
SW-620 = system: SW-620
U-251 = system: U-251
NCI-H23 = system: NCI-H23
OVCAR-4 = system: OVCAR-4
SK-MEL-28 = system: SK-MEL-28
KM12 = system: KM12
SF-539 = system: SF-539
IGROV-1 = system: IGROV-1
LXFL 529 = system: LXFL 529
HT-29 = system: HT-29
NCI-H460 = system: NCI-H460
UO-31 = system: UO-31
SR = system: SR
SF-295 = system: SF-295
LOX IMVI = system: LOX IMVI
NCI-H226 = system: NCI-H226
HCC 2998 = system: HCC 2998
RPMI-8226 = system: RPMI-8226
M14 = system: M14
OVCAR-3 = system: OVCAR-3
SNB-75 = system: SNB-75
M19-MEL = system: M19-MEL
OVCAR-5 = system: OVCAR-5
SNB-78 = system: SNB-78
HCT-15 = system: HCT-15
COLO 205 = system: COLO 205

## O=[N+]([O-])c1ccccc1C1SCc2nc3ccccc3n21 (stereo unspecified)
UACC-62
  GI50: 54 µM (inactive)
DMS-114
  GI50: 66.2 µM (inactive)
HOP-18
  GI50: > 100 µM (inactive)
DMS-273
  GI50: > 100 µM (inactive)
Malme-3M
  GI50: 22.1 µM (inactive)
SN12C
  GI50: 83.9 µM (inactive)
K562
  GI50: 45.5 µM (inactive)
HL-60
  GI50: 74.6 µM (inactive)
CAKI-1
  GI50: 78.3 µM (inactive)
SK-OV-3
  GI50: > 100 µM (inactive)
786-0
  GI50: > 100 µM (inactive)
NCI-H522
  GI50: > 100 µM (inactive)
DLD-1
  GI50: 82 µM (inactive)
CCRF-CEM
  GI50: 69.5 µM (inactive)
RXF 631
  GI50: 93.1 µM (inactive)
OVCAR-8
  GI50: > 100 µM (inactive)
XF498
  GI50: 13.7 µM (inactive)
A549
  GI50: 52.4 µM (inactive)
SK-MEL-2
  GI50: > 100 µM (inactive)
HOP-62
  GI50: 92 µM (inactive)
SNB-19
  GI50: > 100 µM (inactive)
HOP-92
  GI50: 48 µM (inactive)
TK-10
  GI50: 79.1 µM (inactive)
SK-MEL-5
  GI50: 18.3 µM (inactive)
A498
  GI50: 63 µM (inactive)
UACC-257
  GI50: 46.7 µM (inactive)
RXF 393
  GI50: > 100 µM (inactive)
EKVX
  GI50: 75 µM (inactive)
SF-268
  GI50: > 100 µM (inactive)
ACHN
  GI50: 92.5 µM (inactive)
MOLT-4
  GI50: 44 µM (inactive)
SW-620
  GI50: > 100 µM (inactive)
U-251
  GI50: 70.6 µM (inactive)
NCI-H23
  GI50: 54.1 µM (inactive)
OVCAR-4
  GI50: > 100 µM (inactive)
SK-MEL-28
  GI50: > 100 µM (inactive)
KM12
  GI50: > 100 µM (inactive)
SF-539
  GI50: > 100 µM (inactive)
IGROV-1
  GI50: 36.9 µM (inactive)
LXFL 529
  GI50: 92.9 µM (inactive)
HT-29
  GI50: > 100 µM (inactive)
NCI-H460
  GI50: 78.9 µM (inactive)
UO-31
  GI50: 31.6 µM (inactive)
SR
  GI50: 85.3 µM (inactive)
SF-295
  GI50: 59.2 µM (inactive)
LOX IMVI
  GI50: > 100 µM (inactive)

## COc1ccc(O)c(C(=O)CCC(=O)O)c1
UACC-62
  GI50: > 100 µM (inactive)
DMS-114
  GI50: > 100 µM (inactive)
NCI-H226
  GI50: > 100 µM (inactive)
DMS-273
  GI50: > 100 µM (inactive)
Malme-3M
  GI50: > 100 µM (inactive)
SN12C
  GI50: > 100 µM (inactive)
K562
  GI50: > 100 µM (inactive)
HL-60
  GI50: > 100 µM (inactive)
HCC 2998
  GI50: > 100 µM (inactive)
SK-OV-3
  GI50: > 100 µM (inactive)
786-0
  GI50: > 100 µM (inactive)
NCI-H522
  GI50: > 100 µM (inactive)
DLD-1
  GI50: > 100 µM (inactive)
CCRF-CEM
  GI50: > 100 µM (inactive)
RPMI-8226
  GI50: > 100 µM (inactive)
RXF 631
  GI50: > 100 µM (inactive)
OVCAR-8
  GI50: > 100 µM (inactive)
M14
  GI50: > 10 µM (inactive)
XF498
  GI50: > 100 µM (inactive)
A549
  GI50: > 100 µM (inactive)
SK-MEL-2
  GI50: > 100 µM (inactive)
OVCAR-3
  GI50: > 10 µM (inactive)
HOP-62
  GI50: > 10 µM (inactive)
SNB-19
  GI50: > 100 µM (inactive)
HOP-92
  GI50: > 100 µM (inactive)
SNB-75
  GI50: > 100 µM (inactive)
TK-10
  GI50: > 100 µM (inactive)
SK-MEL-5
  GI50: > 100 µM (inactive)
A498
  GI50: > 100 µM (inactive)
M19-MEL
  GI50: > 100 µM (inactive)
UACC-257
  GI50: 15.6 µM (inactive)
RXF 393
  GI50: > 100 µM (inactive)
EKVX
  GI50: > 100 µM (inactive)
SF-268
  GI50: > 100 µM (inactive)
OVCAR-5
  GI50: > 100 µM (inactive)
SNB-78
  GI50: > 100 µM (inactive)
ACHN
  GI50: > 100 µM (inactive)
MOLT-4
  GI50: > 100 µM (inactive)
SW-620
  GI50: > 100 µM (inactive)
U-251
  GI50: > 100 µM (inactive)
NCI-H23
  GI50: > 100 µM (inactive)
OVCAR-4
  GI50: > 100 µM (inactive)
SK-MEL-28
  GI50: > 100 µM (inactive)
KM12
  GI50: > 100 µM (inactive)
SF-539
  GI50: > 100 µM (inactive)
IGROV-1
  GI50: > 100 µM (inactive)
LXFL 529
  GI50: > 100 µM (inactive)
HT-29
  GI50: > 100 µM (inactive)
NCI-H460
  GI50: > 100 µM (inactive)
UO-31
  GI50: > 100 µM (inactive)
SR
  GI50: > 100 µM (inactive)
SF-295
  GI50: > 100 µM (inactive)
HCT-15
  GI50: > 100 µM
LOX IMVI
  GI50: > 100 µM (inactive)
COLO 205
  GI50: > 100 µM (inactive)
